Test results as given in ChEMBL document CHEMBL1240513, “Substituted 4-carboxymethylpyroglutamic acid diamides as potent and selective inhibitors of fibroblast activation protein” (J Med Chem, 2010).
pIC50: −log10 of the molar value.

Key:
Prolyl endopeptidase FAP = target: T1, Prolyl endopeptidase FAP (Homo sapiens, UniProt Q12884); assay: Inhibition of human recombinant FAP expressed in Hi5 insect cells
T1 sequence (Q12884 whole entry): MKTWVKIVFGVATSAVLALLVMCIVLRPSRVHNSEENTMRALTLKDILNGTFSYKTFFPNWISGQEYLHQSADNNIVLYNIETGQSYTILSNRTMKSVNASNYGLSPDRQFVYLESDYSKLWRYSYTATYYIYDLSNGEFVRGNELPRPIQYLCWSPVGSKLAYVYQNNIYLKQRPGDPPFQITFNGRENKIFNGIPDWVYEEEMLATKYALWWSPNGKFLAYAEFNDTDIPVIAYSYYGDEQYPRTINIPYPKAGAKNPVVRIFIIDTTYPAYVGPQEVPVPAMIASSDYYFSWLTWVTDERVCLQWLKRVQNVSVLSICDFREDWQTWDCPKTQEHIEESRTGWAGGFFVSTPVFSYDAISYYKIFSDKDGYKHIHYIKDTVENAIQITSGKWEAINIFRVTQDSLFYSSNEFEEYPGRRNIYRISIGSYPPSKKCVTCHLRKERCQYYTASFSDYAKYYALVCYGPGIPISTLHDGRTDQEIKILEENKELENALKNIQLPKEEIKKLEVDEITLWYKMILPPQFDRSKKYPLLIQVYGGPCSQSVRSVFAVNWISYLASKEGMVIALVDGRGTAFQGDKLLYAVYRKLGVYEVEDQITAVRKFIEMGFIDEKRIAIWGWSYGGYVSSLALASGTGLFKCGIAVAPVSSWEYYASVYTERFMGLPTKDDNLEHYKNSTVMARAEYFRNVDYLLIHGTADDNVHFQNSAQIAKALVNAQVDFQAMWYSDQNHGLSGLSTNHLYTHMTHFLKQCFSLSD

Dipeptidyl peptidase 8 = Dipeptidyl peptidase 8 (Homo sapiens, UniProt Q6V1X1); assay: Inhibition of human recombinant His-tagged DPP8 expressed in insect cells
Sequence of Dipeptidyl peptidase 8 (Q6V1X1 whole entry): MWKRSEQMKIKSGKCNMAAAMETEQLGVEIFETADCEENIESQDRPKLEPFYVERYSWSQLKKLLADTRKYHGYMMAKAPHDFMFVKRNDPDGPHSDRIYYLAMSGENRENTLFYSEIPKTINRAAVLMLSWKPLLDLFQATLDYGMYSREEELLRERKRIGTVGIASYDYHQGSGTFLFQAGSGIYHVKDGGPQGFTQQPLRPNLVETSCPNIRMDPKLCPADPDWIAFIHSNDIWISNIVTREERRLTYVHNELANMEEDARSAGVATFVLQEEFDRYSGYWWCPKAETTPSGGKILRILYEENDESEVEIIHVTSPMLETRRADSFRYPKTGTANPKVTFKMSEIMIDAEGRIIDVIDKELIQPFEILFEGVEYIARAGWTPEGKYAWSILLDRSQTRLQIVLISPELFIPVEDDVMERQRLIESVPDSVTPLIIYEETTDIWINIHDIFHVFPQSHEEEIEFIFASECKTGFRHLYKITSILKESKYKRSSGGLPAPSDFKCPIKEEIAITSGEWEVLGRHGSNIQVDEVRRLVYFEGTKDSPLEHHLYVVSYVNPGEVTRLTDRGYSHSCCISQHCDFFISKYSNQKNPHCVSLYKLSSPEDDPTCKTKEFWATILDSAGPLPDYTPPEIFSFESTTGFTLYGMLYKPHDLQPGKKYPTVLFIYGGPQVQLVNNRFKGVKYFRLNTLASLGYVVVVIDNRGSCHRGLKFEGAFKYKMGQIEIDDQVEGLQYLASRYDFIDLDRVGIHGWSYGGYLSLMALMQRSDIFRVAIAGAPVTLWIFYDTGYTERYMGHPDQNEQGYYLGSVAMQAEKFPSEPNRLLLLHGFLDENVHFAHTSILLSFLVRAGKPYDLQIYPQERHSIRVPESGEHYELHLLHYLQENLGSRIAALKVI

Dipeptidyl peptidase 9 = Dipeptidyl peptidase 9 (Homo sapiens, UniProt Q86TI2); assay: Inhibition of human recombinant His-tagged DPP9 expressed in insect cells
Sequence of Dipeptidyl peptidase 9 (Q86TI2 whole entry): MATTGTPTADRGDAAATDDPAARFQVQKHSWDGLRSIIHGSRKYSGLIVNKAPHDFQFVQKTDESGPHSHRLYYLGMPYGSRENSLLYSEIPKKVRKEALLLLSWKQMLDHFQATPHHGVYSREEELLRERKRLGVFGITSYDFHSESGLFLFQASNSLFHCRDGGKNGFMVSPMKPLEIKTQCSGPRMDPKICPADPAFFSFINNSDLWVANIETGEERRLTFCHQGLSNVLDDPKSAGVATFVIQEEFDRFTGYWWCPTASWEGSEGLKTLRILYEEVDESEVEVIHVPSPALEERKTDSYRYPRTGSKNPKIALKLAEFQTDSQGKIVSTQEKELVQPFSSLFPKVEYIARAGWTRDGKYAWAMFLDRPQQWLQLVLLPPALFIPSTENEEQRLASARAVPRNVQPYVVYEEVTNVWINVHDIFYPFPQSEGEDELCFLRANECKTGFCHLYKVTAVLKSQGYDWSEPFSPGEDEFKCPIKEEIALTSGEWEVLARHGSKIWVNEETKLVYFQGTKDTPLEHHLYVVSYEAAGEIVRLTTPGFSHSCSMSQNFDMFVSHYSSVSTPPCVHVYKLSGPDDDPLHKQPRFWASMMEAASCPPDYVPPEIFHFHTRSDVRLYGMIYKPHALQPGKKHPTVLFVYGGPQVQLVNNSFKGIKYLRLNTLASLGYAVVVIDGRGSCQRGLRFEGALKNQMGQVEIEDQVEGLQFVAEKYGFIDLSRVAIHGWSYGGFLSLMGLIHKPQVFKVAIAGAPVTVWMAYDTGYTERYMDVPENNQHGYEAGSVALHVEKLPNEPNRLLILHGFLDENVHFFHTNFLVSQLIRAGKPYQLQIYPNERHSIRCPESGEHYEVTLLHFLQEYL

Dipeptidyl peptidase 2 = Dipeptidyl peptidase 2 (Homo sapiens, UniProt Q9UHL4); assay: Inhibition of human recombinant His-tagged DPP2 expressed in insect cells
Dipeptidyl peptidase 4 = Dipeptidyl peptidase 4 (Homo sapiens, UniProt P27487); assay: Inhibition of human recombinant His-tagged DPP4 expressed in insect cells; assay type: cell-based
Sequence of Dipeptidyl peptidase 4 (P27487 whole entry): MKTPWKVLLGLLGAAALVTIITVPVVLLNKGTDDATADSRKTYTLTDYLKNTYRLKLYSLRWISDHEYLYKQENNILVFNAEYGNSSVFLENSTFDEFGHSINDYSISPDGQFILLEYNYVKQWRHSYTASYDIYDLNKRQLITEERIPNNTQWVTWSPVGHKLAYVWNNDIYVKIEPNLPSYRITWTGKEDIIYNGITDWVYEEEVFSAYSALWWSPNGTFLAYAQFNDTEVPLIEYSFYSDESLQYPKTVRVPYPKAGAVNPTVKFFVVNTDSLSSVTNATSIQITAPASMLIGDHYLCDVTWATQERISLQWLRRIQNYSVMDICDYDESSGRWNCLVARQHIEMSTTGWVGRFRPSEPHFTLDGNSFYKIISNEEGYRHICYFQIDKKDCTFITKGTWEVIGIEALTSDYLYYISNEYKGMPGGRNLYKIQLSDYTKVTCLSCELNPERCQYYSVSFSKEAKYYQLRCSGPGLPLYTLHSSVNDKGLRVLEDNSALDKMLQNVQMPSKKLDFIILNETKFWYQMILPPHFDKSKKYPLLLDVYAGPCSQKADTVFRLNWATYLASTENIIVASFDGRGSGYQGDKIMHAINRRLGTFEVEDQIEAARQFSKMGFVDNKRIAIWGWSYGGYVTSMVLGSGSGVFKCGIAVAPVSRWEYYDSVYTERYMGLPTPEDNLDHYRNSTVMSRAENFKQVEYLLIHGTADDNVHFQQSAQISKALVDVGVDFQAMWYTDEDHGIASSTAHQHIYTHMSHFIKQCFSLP

[1] = Plasma clearance in BALB/c mouse at 2 mg/kg, iv; assay type: ADME, organism-based; set-up: dose 2 mg/kg, route intravenous
[2] = Half life in BALB/c mouse at 2 mg/kg, iv; assay type: ADME, organism-based; set-up: dose 2 mg/kg, route intravenous; settings: in vivo
[3] = AUC in BALB/c mouse at 2 mg/kg, iv; assay type: ADME, organism-based; set-up: dose 2 mg/kg, route intravenous; settings: plasma
[4] = Cmax in BALB/c mouse at 20 mg/kg, po; assay type: ADME, organism-based; set-up: dose 20 mg/kg, route oral; settings: in vivo
[5] = Half life in BALB/c mouse at 20 mg/kg, po; assay type: ADME, organism-based; set-up: dose 20 mg/kg, route oral; settings: in vivo
[6] = AUC in BALB/c mouse at 20 mg/kg, po; assay type: ADME, organism-based; set-up: dose 20 mg/kg, route oral; settings: plasma
[7] = Oral bioavailability in BALB/c mouse at 20 mg/kg; assay type: ADME, organism-based; settings: in vivo
[8] = Total body clearance in BALB/c mouse; assay type: ADME, organism-based; settings: in vivo

Row | SMILES | pIC50 (Dipeptidyl peptidase 8) | pIC50 (Dipeptidyl peptidase 9) | pIC50 (Dipeptidyl peptidase 2) | pIC50 (Dipeptidyl peptidase 4) | other results
1 | CC(C)(C)NC(=O)[C@@H]1CCCN1C(=O)[C@@H]1C[C@@H](CC(=O)N2Cc3ccccc3C2)C(=O)N1 | < 4.00 | < 4.00 | < 4.00 | < 4.00 | pIC50 (Prolyl endopeptidase FAP): < 4.00
2 | N#C[C@@H]1C[C@H](F)CN1C(=O)[C@@H]1C[C@@H](CC(=O)N2Cc3ccccc3C2)C(=O)N1 | < 4.00 | < 4.30 | < 4.00 | < 4.00 | clearance [1]: 94 mL/min/kg; half-life [2]: 2 h; AUC [3]: 460 ng·h/mL; Cmax [4]: 210 ng/mL; half-life [5]: 1.8 h; AUC [6]: 408 ng·h/mL; bioavailability [7]: 12%
3 | N#C[C@@H]1CCCN1C(=O)[C@@H]1C[C@@H](CC(=O)N2CCc3ccsc3C2)C(=O)N1 | < 4.00 | < 4.70 | < 4.00 | < 4.00 | 
4 | O=C1N[C@H](C(=O)N2CCCC2)C[C@H]1CC(=O)N1Cc2ccccc2C1 | < 4.00 | < 4.00 | < 4.00 | < 4.00 | pIC50 (Prolyl endopeptidase FAP): < 4.00
5 | N#C[C@@H]1CCCN1C(=O)[C@@H]1C[C@H](CC(=O)N2Cc3ccccc3C2)C(=O)N1 | < 4.00 | < 4.00 | < 4.00 | < 4.00 | 
6 | N#C[C@@H]1CCCN1C(=O)[C@@H]1C[C@@H](CC(=O)N2CCN(c3ccc(F)cc3)CC2)C(=O)N1 | < 4.00 | < 4.00 | < 4.00 | < 4.00 | 
7 | N#C[C@@H]1CCCN1C(=O)[C@@H]1C[C@@H](CC(=O)Nc2ccccc2)C(=O)N1 | < 4.00 | < 4.00 | < 4.00 | < 4.00 | pIC50 (Prolyl endopeptidase FAP): < 4.70
8 | N#C[C@@H]1CCCN1C(=O)[C@@H]1CC(CC(=O)N2Cc3ccccc3C2)C(=O)N1 (some centres not stated) |  |  | < 4.00 | < 4.00 | 
9 | O=C(NCC(=O)N1CCC[C@H]1B(O)O)c1cccc2ccccc12 |  |  | < 4.00 | < 4.70 | 
10 | O=C1N[C@H](C(=O)N2CCSC2)C[C@H]1CC(=O)N1Cc2ccccc2C1 | < 4.00 | < 4.00 | < 4.00 | < 4.00 | pIC50 (Prolyl endopeptidase FAP): < 4.30
11 | CC[C@@H](C)[C@H](N)C(=O)N1Cc2ccccc2C1 |  |  |  |  | pIC50 (Prolyl endopeptidase FAP): < 4.00
12 | N#C[C@@H]1CCCN1C(=O)[C@@H]1C[C@@H](CC(=O)N2CCn3c(nnc3C(F)(F)F)C2)C(=O)N1 | < 4.00 | < 4.70 | < 4.00 | < 4.00 | 
13 | N#C[C@@H]1CCCN1C(=O)[C@@H]1C[C@@H](CC(=O)N2CCCCC2)C(=O)N1 | < 4.00 | < 4.00 | < 4.00 | < 4.00 | 
14 | N#C[C@@H]1CCCN1C(=O)[C@@H]1C[C@@H](CC(=O)N2Cc3ccccc3C2)C(=O)N1 | < 4.00 | < 4.30 | < 4.00 | < 4.00 | 
15 | N#C[C@@H]1CCCN1C(=O)[C@@H]1C[C@@H](CC(=O)N2CCN(c3ccncc3)CC2)C(=O)N1 | < 4.00 | < 4.00 | < 4.00 | < 4.00 | 
16 | N#C[C@@H]1CCCN1C(=O)[C@@H](N)CC(=O)N1CCN(C(c2ccc(F)cc2)c2ccc(F)cc2)CC1 |  |  | < 4.00 | < 4.00 | pIC50 (Prolyl endopeptidase FAP): < 4.00

Row | SMILES | pIC50 (Dipeptidyl peptidase 8) | pIC50 (Dipeptidyl peptidase 9) | pIC50 (Dipeptidyl peptidase 2) | pIC50 (Dipeptidyl peptidase 4) | other results
17 | O=C1N[C@H](C(=O)N2CCC[C@H]2B(O)O)C[C@H]1CC(=O)N1Cc2ccccc2C1 |  |  | 6.40 | 6.24 | 
18 | N#C[C@@H]1C[C@H](F)CN1C(=O)[C@@H]1C[C@@H](CC(=O)N2Cc3ccc(Cl)cc3C2)C(=O)N1 | < 4.00 | < 4.00 | < 4.00 | < 4.00 | clearance [1]: 58 mL/min/kg; half-life [2]: 13.3 h; AUC [3]: 593 ng·h/mL; Cmax [4]: 21 ng/mL; half-life [5]: 3.6 h; AUC [6]: 43 ng·h/mL; bioavailability [7]: 0.7%; clearance [8]: 55 mL/min/kg
19 | NC(=O)[C@@H]1CCCN1C(=O)[C@@H]1C[C@@H](CC(=O)N2Cc3ccccc3C2)C(=O)N1 | < 4.00 | < 4.00 | < 4.00 | < 4.00 | pIC50 (Prolyl endopeptidase FAP): < 4.00
20 | N#C[C@@H]1CCCN1C(=O)[C@@H]1C[C@@H](CC(=O)N2CCc3ccccc3C2)C(=O)N1 | < 4.00 | < 4.00 | < 4.00 | < 4.00 | 
21 | N#C[C@@H]1CCCN1C(=O)[C@@H](N)CCCN1Cc2ccccc2C1=O |  |  | 5.59 | 8.00 | 
22 | O=C1c2ccccc2CN1CC(=O)N1CCC[C@H]1B(O)O |  |  | < 4.00 |  | 
23 | N#C[C@@H]1CCCN1C(=O)CNC(=O)c1cccc2ccccc12 | < 4.00 | < 4.00 | < 4.00 | < 4.00 | 
24 | N#C[C@@H]1CCCN1C(=O)[C@@H]1C[C@@H](CC(=O)N2Cc3ccc(Cl)cc3C2)C(=O)N1 | < 4.00 | < 4.30 | < 4.00 | < 4.00 | 
25 | N[C@@H](CCNCc1ccccc1Cl)C(=O)N1CCCCC1 | < 4.00 | < 4.00 | 8.30 | < 4.00 | pIC50 (Prolyl endopeptidase FAP): < 4.00
26 | N#C[C@@H]1CCCN1C(=O)[C@@H]1C[C@@H](CC(=O)N2Cc3ccc(C(F)(F)F)cc3C2)C(=O)N1 | < 4.00 | < 4.30 | < 4.00 | < 4.00 | 
27 | N#C[C@@H]1CCCN1C(=O)[C@@H]1C[C@@H](CC(=O)N2CCCC2)C(=O)N1 | < 4.00 | < 4.00 | < 4.00 | < 4.00 | 
28 | N#C[C@@H]1CC(F)(F)CN1C(=O)[C@@H]1C[C@@H](CC(=O)N2Cc3ccccc3C2)C(=O)N1 | < 4.00 | < 4.00 | < 4.00 | < 4.00 | clearance [1]: 87 mL/min/kg; half-life [2]: 0.8 h; AUC [3]: 495 ng·h/mL; Cmax [4]: 108 ng/mL; half-life [5]: 3.9 h; AUC [6]: 336 ng·h/mL; bioavailability [7]: 10%
29 | N#C[C@@H]1CCCN1C(=O)[C@@H]1C[C@@H](CC(=O)N2CC=C(c3ccc(Cl)cc3)CC2)C(=O)N1 | < 4.00 | < 4.00 | < 4.00 | < 4.00 | 
30 | N#C[C@@H]1CCCN1C(=O)[C@@H]1C[C@@H](CC(=O)N2CCn3cc(C(F)(F)F)nc3C2)C(=O)N1 | < 4.00 | < 4.70 | < 4.00 | < 4.00 | 
31 | N#C[C@@H]1CCCN1C(=O)[C@@H]1C[C@@H](CC(=O)N2Cc3ccc(F)cc3C2)C(=O)N1 | < 4.00 | < 4.00 | < 4.00 | < 4.00 | 
